Results reported in ChEMBL document CHEMBL5325419, “Design, synthesis and biological evaluation of novel thiosemicarbazones as cruzipain inhibitors” (Eur J Med Chem, 2023).
“And” between values parts separate entries of the source, which are not always exact repeats. Identical values can stand only once. The source made the active and inactive calls. The rule behind the calls is not given here.

Tests used:
Cruzipain [1] = molecular target: T1, Cruzipain (Trypanosoma cruzi, UniProt P25779); experiment: Inhibition of recombinant Trypanosoma cruzi Cruzipain using Z-Phe-Arg-AMC as substrate preincubated for 5 mins followed by substrate addition by spectrofluorometry analysis
Cruzipain [2] = molecular target: T1, Cruzipain; experiment: Inhibition of recombinant Trypanosoma cruzi Cruzipain using Z-FR-AMC as substrate preincubated for 20 mins followed by substrate addition and measured for 45 mins by fluorescence analysis
[3] = molecular target: Cruzipain (Trypanosoma cruzi) (UniProt P25779); experiment: Reversible inhibition of recombinant Trypanosoma cruzi Cruzipain using Z-LR-AMC as substrate at 1 uM preincubated for 60 mins followed by substrate addition and measured for 45 to 60 mins by fluorescence analysis; details: time 105-120 min
[4] = molecular target: Cruzipain (Trypanosoma cruzi) (UniProt P25779); experiment: Time dependent inhibition of recombinant Trypanosoma cruzi Cruzipain using Z-FR-AMC as substrate at 125 nM preincubated for 60 mins followed by substrate addition and measured for 45 to 60 mins by fluorescence analysis; details: time 105-120 min, TDE = time-dependent effect
[5] = molecular target: Cruzipain (Trypanosoma cruzi) (UniProt P25779); experiment: Time dependent inhibition of recombinant Trypanosoma cruzi Cruzipain using Z-FR-AMC as substrate at 1000 nM preincubated for 60 mins followed by substrate addition and measured for 45 to 60 mins by fluorescence analysis; details: time 105-120 min, TDE = time-dependent effect
[6] = molecular target: Cruzipain (Trypanosoma cruzi) (UniProt P25779); experiment: Inhibition of recombinant Trypanosoma cruzi Cruzipain using Z-FR-AMC as substrate at 125 to 1000 nM by fluorescence analysis; details: dose 125-1000 nM
[7] = molecular target: Cruzipain (Trypanosoma cruzi) (UniProt P25779); experiment: Reversible inhibition of recombinant Trypanosoma cruzi Cruzipain using Z-LR-AMC as substrate at 10 uM preincubated for 60 mins followed by substrate addition and measured for 45 to 60 mins by fluorescence analysis; details: time 105-120 min
[8] = molecular target: Cruzipain (Trypanosoma cruzi) (UniProt P25779); experiment: Reversible inhibition of recombinant Trypanosoma cruzi Cruzipain using Z-LR-AMC as substrate at 25 uM preincubated for 60 mins followed by substrate addition and measured for 45 to 60 mins by fluorescence analysis; details: time 105-120 min

T1 sequence (P25779 whole entry): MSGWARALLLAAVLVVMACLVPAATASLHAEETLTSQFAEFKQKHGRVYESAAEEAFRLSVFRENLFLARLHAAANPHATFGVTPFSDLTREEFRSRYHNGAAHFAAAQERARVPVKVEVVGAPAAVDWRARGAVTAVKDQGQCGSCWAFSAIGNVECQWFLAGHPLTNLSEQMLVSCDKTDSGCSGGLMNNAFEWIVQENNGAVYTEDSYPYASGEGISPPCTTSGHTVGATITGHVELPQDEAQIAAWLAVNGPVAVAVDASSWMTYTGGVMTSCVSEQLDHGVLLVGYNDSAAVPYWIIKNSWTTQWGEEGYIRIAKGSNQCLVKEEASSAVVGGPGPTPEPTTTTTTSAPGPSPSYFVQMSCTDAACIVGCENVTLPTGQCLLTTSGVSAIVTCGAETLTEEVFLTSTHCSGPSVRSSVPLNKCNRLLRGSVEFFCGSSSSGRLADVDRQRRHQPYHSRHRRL
Sequence of Cruzipain (Trypanosoma cruzi) (P25779 123-467 limits assumed): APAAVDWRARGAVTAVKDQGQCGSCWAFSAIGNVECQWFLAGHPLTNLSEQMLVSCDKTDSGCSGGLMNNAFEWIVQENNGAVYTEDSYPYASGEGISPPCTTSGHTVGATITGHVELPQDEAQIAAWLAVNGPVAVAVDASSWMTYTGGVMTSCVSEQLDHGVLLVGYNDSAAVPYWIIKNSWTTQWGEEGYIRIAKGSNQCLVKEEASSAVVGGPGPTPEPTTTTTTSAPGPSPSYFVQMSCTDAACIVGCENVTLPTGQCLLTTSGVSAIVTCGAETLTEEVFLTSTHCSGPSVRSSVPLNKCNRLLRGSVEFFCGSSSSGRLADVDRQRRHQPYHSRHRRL

IC50 (Cruzipain [1]) [nM]	IC50 (Cruzipain [2]; read-out: IC50)	inhibition [4]	inhibition [5]	inhibition [6]	SMILES	other results
24.5					CC/C(=N\N=C(\N)S)c1ccc(Cl)c(Cl)c1	
	3.34 nM and 8.48 nM	Tde	Tde	Dose-Dependent Effect	NC(=S)N/N=C(\CCN1CCOCC1)c1ccc(Cl)c(Cl)c1	inhibition [3]: Active
110					C/C(=N\N=C(\N)S)c1cccc(Br)c1	
	2.86 nM and 8.54 nM	Tde	Tde	Dose-Dependent Effect	NC(=S)N/N=C(\CCN1CCCCC1)c1ccc(Cl)c(Cl)c1	inhibition [7]: Active
		Tde	Tde	Dose-Dependent Effect	NC(=S)N/N=C(\CCn1ccnc1)c1ccc(Cl)c(Cl)c1	inhibition [8]: Active
					N/C(S)=N/N=C/c1cccc(Br)c1	IC50 (Cruzipain [2]; read-out: pIC50 (converted)): 1360 nM
